Test results as given in US11471472B2, “Use of verbascoside in preparation of drug for preventing or treating glomerular podocyte injured renal disease” (SICHUAN MEDCO PHARMACEUTICAL STOCK CO., LTD., priority 2017, dated 2022).

Assays:
mouse podocyte line MPC5 [1] = experiment: Cell migration (scratch) experiment in puromycin-treated podocytes; type: cell-based; settings: 24 hours after scratch
Procedure: (§1) A mouse podocyte line MPC5 was offered by professor Peter Mundel from Mount Sinai Medical School, New York, USA. After recovery, podocytes were placed in a 33° C., 5% CO2 cell incubator to be cultured for proliferation thereof. When a fusion degree thereof reached about 80%, the podocytes were transferred into a 37° C. incubator to be differentiated for 10-14 days such that the podocytes were differentiated to be mature. After the podocytes were differentiated to be mature, the podocytes were inoculated in a 6-well plate, and after the podocytes adhered to the wall, puromycin and verbascoside were added into the plate to stimulate the podocytes for 24 hours, and then proteins or RNAs were collected for later detection.
The differentiated podocytes were inoculated on a 6-well plate coated with rat type I collagen, and when the fusion degree thereof reached 60%, a line was scratched on a baseboard using a 200 μL sterile high-pressure gun tip, then the plate was flushed clean using PBS and a clean culture medium was used in replacement, which time was served as the 0th hour, and a photo was taken by an inverted microscope, then a corresponding drug was added for intervention, then after 24 hours, a photo was taken again, and finally analysis was made using ImageJ software. The final result was expressed by percentage of coverage.

synaptopodin = experiment: Synaptopodin immunofluorescence of kidney tissue in puromycin-induced nephropathic rats; type: in vivo, Sprague-Dawley rats; settings: 20th day, 10 mg/kg intragastrically every day
Procedure: (§2) The animal experiment was approved by Animal Ethics Committee of Peking University First Hospital, with Resolution No.: J201644. 51 male Sprague-Dawley rats (6 weeks) of the same batch were purchased from Beijing Charles River Company, raised at the animal center of Peking University First Hospital (clean grade), and randomly divided into 3 groups after 3 days of acclimation:
(§3) In the above, groups 2 and 3 were intraperitoneally subjected to single injection of puromycin (Sigma P7130) by 15 mg/100 g at day 0 of the experiment. The normal control group was intraperitoneally injected with the same dosage of physiological saline. Group 3 was intragastrically treated with 10 mg/kg verbascoside every day, and groups 1 and 2 were intragastrically treated with the same dosage of injection water every day. In the experiment process, 24-hour urine of the rats was collected respectively before the administration (Day 0), and at the 5th day, the 10th day, the 15th day, and the 20th day (Day 5, Day 10, Day 15, and Day 20) after the administration, for quantitative measurement of urine protein (Hitachi 7170A full-automatic biochemical analyzer). […]
(§4) The kidney tissue was sliced. […] The mixture was rinsed with deionized water, mounted with 50% buffered glycerol, edge sealed with nail polish, observed under a fluorescence microscope, and photographed. […]

nephrin [2] = experiment: Nephrin gene and protein expression in glomeruli of puromycin-induced nephropathic rats (western, real-time quantitative PCR); type: in vivo, Sprague-Dawley rats; settings: 20th day, 10 mg/kg intragastrically every day
Procedure: as §2, §3

mouse podocyte line MPC5 [3] = experiment: Detection of podocyte activity with MTS in puromycin-induced podocyte damage; type: cell-based; settings: 24 h
Procedure: as §1
After subculturing and counting the podocytes, the podocytes were uniformly inoculated into a 96-well plate at a density of 1.0×10^5/mL, after the cells adhered to the wall, puromycin and verbascoside were respectively added to treat the podocytes, then after 24 h, the culture medium was discarded, a culture medium containing MTS (Promega G1112) was added with the MTS content of 10 μl MTS per 100 μl of the culture medium, the 96-well plate added with the MTS was placed in a light-tight environment at 37° C. for 4 h and then taken out, and an OD value was measured at 490 nm wavelength using the ELIASA.

[4] = system: rats suffering from puromycin-caused nephropathy; experiment: 24-hour urine protein in rats suffering from puromycin-caused nephropathy; type: in vivo, Sprague-Dawley rats; settings: 10 mg/kg verbascoside intragastrically every day
Excerpt: as §2
1. normal control group (CON)
2. puromycin disease group (PAN)
3. puromycin+verbascoside-treated group (PAN+ACT)
In the above, groups 2 and 3 were intraperitoneally subjected to single injection of puromycin (Sigma P7130) by 15 mg/100 g at day 0 of the experiment. The normal control group was intraperitoneally injected with the same dosage of physiological saline. Group 3 was intragastrically treated with 10 mg/kg verbascoside every day, and groups 1 and 2 were intragastrically treated with the same dosage of injection water every day. In the experiment process, 24-hour urine of the rats was collected respectively before the administration (Day 0), and at the 5th day, the 10th day, the 15th day, and the 20th day (Day 5, Day 10, Day 15, and Day 20) after the administration, for quantitative measurement of urine protein (Hitachi 7170A full-automatic biochemical analyzer). The rats were sacrificed at the 20th day (Day 20) after the injection of puromycin, and kidney specimens were collected, which were subsequently used for extracting protein, extracting RNA, taking paraffin-embedded and frozen specimens, and separating glomeruli.
In order to determine the therapeutic effect of verbascoside on the rats suffering from puromycin-caused nephropathy, the rats were divided into 3 groups, normal control group (CON), disease group (PAN), and verbascoside group (PAN+ACT). 24-hour urine of the rats in each group were sampled every 5 days. The effect of verbascoside for treating the nephropathic proteinuria level was reflected by collecting and detecting blood and urine samples of the rats in each group.

nephrin [5] = experiment: Nephrin protein expression in puromycin-induced podocyte damage (western blot); type: cell-based, mouse; settings: 24 hours
Procedure: as §1, with “detection. […]” for “detection.”

podocyte foot process = experiment: Podocyte foot process under electron microscope in puromycin-induced nephropathic rat models; type: in vivo, Sprague-Dawley rats; settings: 20th day; 10 mg/kg intragastrically every day
Procedure: as §2, §3

mouse podocyte line MPC5 [6] = experiment: Phalloidin staining of podocyte cytoskeletal microfilamentous proteins; type: cell-based; settings: puromycin-treated podocytes
Procedure: as §1
as §4, with “sliced. First, slices were subjected to xylene and gradient alcohol deparaffinization, followed by antigen retrieval, and then punched with 0.3% Triton-PBS.” for “sliced.”

Substance: Verbascoside
- podocyte migration capability (percentage of coverage) (mouse podocyte line MPC5 [1]): restored
- synaptopodin fluorescence intensity (synaptopodin): recovered
- nephrin gene expression level (real-time quantitative PCR) (nephrin [2]): increased
- nephrin protein expression level (western) (nephrin [2]): increased
- podocyte viability (MTS, OD 490 nm) (mouse podocyte line MPC5 [3]): recovered
- 24-hour urine protein vs puromycin group ([4]; 5th day, puromycin 15 mg/100 g i.p.): not significantly different
- 24-hour urine protein vs disease group ([4]; 10th day, puromycin 15 mg/100 g i.p.): decreased significantly
- 24-hour proteinuria abnormality ([4]; 15th day): remarkably relieved
- 24-hour proteinuria abnormality ([4]; 20th day): remarkably relieved
- nephrin expression (protein) (nephrin [5]): improved
- podocyte foot process fusion (electron microscope) (podocyte foot process): recovered apparently
- arrangement of the cytoskeletons (phalloidin) (mouse podocyte line MPC5 [6]): restored
